What all share (assay type): in vivo
One experiment relates to onion. Nature of the experiment: Growth, yield and yield attributes of onion (Test-3). As for the experimental part:
The method of testing effect of additive 10 on different properties of soil was similar to the method as disclosed in Test-1 of Experiment-2, except time period which is 2 months instead of 9 months. The effect of additive was tested on soil using additive 10.
The effect of the additive 10, agricultural composition and agricultural composition along with fertilizer prepared in accordance with the present disclosure on the growth of onion was studied. Additive 10 prepared in Experiment 1 was used for the study. The study was conducted in the presence and in absence of the additive of the present disclosure to determine the effect of the additive on onion. Further, the effect of agricultural composition and agricultural composition along with fertilizer was studied. The study was carried out at a village in Bhavnagar District (Gujarat). The study was carried out in Two Plots: one plot, the additive of the present disclosure application and the other plot, urea application under Spacing of two rows and plants (15 cm×10 cm).
The effect of additive 10, agricultural composition and agricultural composition along with fertilizer on growth, yield and yield attributes of onion was carried and the comparative results obtained are summarized in Table-5a.

The next experiment relates to pigeon pea (Toor). Nature of the experiment: Comparative report of parameters for pigeon pea (Toor), Table 7 (protein, energy, ash, minerals). As to conditions: pigeon pea (Toor) trial.
For another experiment, the system named is Pigeon pea crop. Nature of the experiment: Yield and yield attributes of pigeon pea (Test-5). As for the experimental part: The study was carried out with and without the additive of the present disclosure in different plots at a village in […] District (Gujarat). The Pigeon pea crop was planted in 90 cm between two rows and 20 cm of two plants under fields. The result pertaining to plant height, number of branches per plant, number of pods per plant, grain and haulm yield of pigeon pea crop recorded at harvest as influenced by additive of the present disclosure is summarized in Table-7a. Further, the effect of the plant growth regulator and agricultural composition and the comparative results obtained are summarized in Table-7b.

Data on one compound can be found in patent US10975303B2, “Additive for soil conditioning and an agricultural composition containing said additive for plant growth” (priority 2019, dated 2021).

In the experiment with onion, `NC(N)=O` [urea] displayed an Ave. bulb weight of 51.50 g, a Bulb yield of 34.30 t/ha, a Leaf area of 930 cm² and a Plant height of 56.00 cm. In the experiment with pigeon pea (Toor), this compound yielded an Energy of 355.01 Kcal/100 gm. Moreover, the “Total Ash” value in the experiment on pigeon pea (Toor) (LOQ 0.1) was 3.94 gm/100 gm. The “Total Protein” value in the experiment with pigeon pea (Toor) (LOQ 0.5) was determined as 16.47 gm/100 gm. In addition, in the experiment on pigeon pea (Toor) (LOQ 2.5), the “Calcium (as Ca)” value was found to be 508.85 mg/kg, the “Iron (as Fe)” value amounted to 11.48 mg/kg, the “Manganese (as Mn)” value turned out to be 4.71 mg/kg and the “Zinc (as Zn)” value was determined as 10.99 mg/kg. In the experiment with Pigeon pea crop, the Grain yield is on record as 1060 kg/ha and the Haulm yield is listed as 1285 kg/ha. Moreover, in the experiment on Pigeon pea crop (at harvest), the “Number of branches per plant” value turned out to be 10.0, the “Number of pods per plant” value was determined as 172.0 and the Plant height is recorded as 133.0 cm.
